Format: physicochemical
Protocol: Finsolv® TN is a C12-15 alkyl benzoate from Fintex, Inc. (Elmwood Park, N.J.) Miglyol® 812 from Huls AG (Marl, Germany) and Neobee® 1053 from Stepan Company (Northfield, Ill.) are each a caprylic/capric triglyceride.
The general procedure to prepare the above formulations is as follows. A 500 mg of Compound 1 was weighed and transferred into an 800 ml glass beaker containing 500 g of one of the above carriers. The formulation was then stirred with a paddle mixer (stirrer type RZR50 from Caframo in Wiarton, Ontario, Canada) at 100 RPM setting until the compound was completely dissolved/dispersed in the carrier.
About 20 g each of the resulting formulations were then packed into 24 clear glass scintillation vials of 20 ml volume (Wheaton Disposable Scintillation Vials from Wheaton Scientific in Milleville, N.J.) and labeled. Groups of eight of such vials were then stored at 4° C., RT (22° C.) and/or 40° C. for stability studies.
The samples of the formulations at each of the above three temperatures were then periodically analyzed for the chemical stability of Compound 1. The compound was assayed using high performance liquid chromatographic (HPLC) system. The results of this analysis is set forth in Table 2 setting forth the amount of Compound 1 remaining in the formulation following a certain number of days at specified temperatures.

For `CCCCCc1cc2c(cc1C(=O)Oc1ccc(C(=O)O)cn1)C(C)(C)CCC2(C)C` [Compound I], the “Stabilization of the compound in topical liquid or semisolid pharmaceutical formulations” value was “None of these formulations, however, were capable of sufficiently stabilizing the compound”.
